Results from patent US5002963A, “3-indolepyruvic acid derivatives and pharmaceutical use thereof” (priority 1987, dated 1991).
Structures can show the parent of a compound that is named as a salt. Blank lines part the entries; values can stand above or below the compound they belong to.

Experiments:
[1] = tested on: audiogenic convulsions in DBA2 mice; assay: Test 6: audiogenic convulsions in DBA2 mice; format: in vivo; details: for Animals with convulsions, % / Animals with convulsions: one hour before the test; for Animals with convulsions: number/total; for protective action against tonic convulsions induced by sound stimulations (in words): DBA2 mice
Protocol: To evaluate whether an increase in kynurenic acid in the brain after administration of IPA could have a protective action on neurons stressed by excitatory aminoacids, the experimental pattern of inducing convulsions in a particular strain of mice (DBA2) by selected sound stimulations was followed. […] The substances were injected intravenously one hour before the test. Then the number of animals showing tonic convulsions was measured.

[2] = tested on: kynurenic acid; assay: Test 3: effect on the content of kynurenic acid after administration of IPA in rat; format: in vivo; details: for increase in the levels of kynurenic acid in the tissues (in words): rat, in vivo
Excerpt: (§1) For the measurement of such levels after administration of 3-indolepyruvic acid or a derivative thereof, a system was set up based on ultraviolet detection of the compounds separated by high pressure liquid chromatography.
(§2) Briefly, after sacrific of the animal, some of the principal organs were taken and homogenized with alkaline ethanol. Proteins and cell remains were removed by centrifugation, whilst the over natant was adsorbed on Bio-Rad AG 1×8 resin. After washing with water it was eluted with formic acid. It was then passed on Bio-Rad AG 50W-×8 resin, eluted with 3% ammonia, dried and retaken with a small amount of water.
(§3) The sample thus obtained was injected into a Waters apparatus for high pressure liquid chromatography, using a C18 10 micron column and eluting with 0,02 m citric acid containing 10% of methanol. The kynurenic acid levels were extrapolated by the calibration line of the acid and reading at 234 nm.
Male rats were treated with saline solution (controls) or with various doses of IPA, which was injected 3 hours before sacrifice. Each lot comprised 10 animals.
The results are reported in picomoles/g of tissue (or ml of blood)±standard error.

[3] = Stability; format: physicochemical
[4] = tested on: NMDA induced convulsions; assay: Test 7: NMDA induced convulsions; format: in vivo, Mice of Albino Swiss strain
Protocol: Mice of Albino Swiss strain were treated with saline (controls) or with IPA (1 g/Kg i.p.) one hour before receiving a toxic dose of NMDA (154 mg/Kg i.p.).

[5] = Test 1: transformation of 3-indolepyruvic acid into kynurenic acid in vitro, within a non enzymatic system; format: physicochemical; details: from 2 mg, HCl 0,1 M, O2 and light
Protocol: When 3-indole pyruvic acid or a derivative thereof of formula 1 is incubated in a slightly acid solution (HCl 0,1 M), in the presence of oxidising agents (O2) and light, in time the formation of small amounts of kynurenic acid is observed. Particularly starting from 2 mg 3-indolepyruvic acid, 0,5 micrograms are obtained after 2 hours and 0,7 micrograms after 4 hours.

[6] = tested on: kynurenic acid; assay: Test 3: effect on the content of kynurenic acid after administration of IPA in rat; format: in vivo; details: 3 hours, ± standard error
[7] = tested on: Brain homogenate; assay: Test 2: transformation into kynurenic acid in tissue homogenates (brain); format: in vitro ADME, rats; details: for Amount of kynurenic acid formed: brain homogenate
Protocol: (§4) Male rats fasting for 16 hours were sacrificed and their organs were taken and homogenized in 5 volumes of 0,05 M phosphate buffer pH 7,4+0,14 M KCl.
(§5) Small amounts of homogenate (0,8 ml) were additioned with various amounts of 3-indolepyruvic acid or the derivatives thereof, dissolved into a buffer solution, and with a system for the production of free radicals, consisting of ascorbic acid (final 10^-5 M), FeCl3 (final 10^-6 M) and H2 O2 (final 10^-4 M). It was stirred at 37° C., then the reaction was blocked.

[8] = tested on: tryptophan and kynurenic acid in the brain of rats; details: rat, in vivo; for KYN/TRP × 10^3: ip, 250 mg/kg
Excerpt: as §1, §2, §3
Male rats were treated with saline solution (controls), IPA or tryptophan i.p. one hour before sacrifice. Each lot was of six animals.
The reported values are in picomoles/g for kynurenic acid and picomoles/mg for tryptophan.

[9] = tested on: kynurenic acid; assay: Test 5: time course of the kynurenic acid levels after administration of IPA; format: in vivo, rats; details: 250 mg/Kg i.p.; for kynurenic acid level, Brain / kynurenic acid level, Heart / kynurenic acid level, Kidney / kynurenic acid level, Liver: ± standard error
Excerpt: as §1, §2, §3
Male rats, in lots of five animals each, were treated i.p. with 250 mg/Kg IPA and were sacrificed at different times, evaluating the levels of kynurenic acid present in various organs.
The results are reported in picomoles/g±standard error.

[10] = tested on: Kidney homogenate; assay: Test 2: transformation into kynurenic acid in tissue homogenates (kidney); format: in vitro ADME, rats
Protocol: as §4, §5

[11] = Water solubility; format: physicochemical
[12] = tested on: NMDA induced convulsions; details: cited from earlier work
[13] = tested on: audiogenic convulsions in DBA2 mice; details: known effect of kynurenic acid; cited from earlier work
[14] = tested on: excitatory aminoacids; details: cited from earlier work; for agonism of excitatory aminoacids (in words): central nervous system of mammals
[15] = 100 mg/Kg i.p., 3 hours, ± standard error
[16] = 250 mg.Kg i.p., 3 hours, ± standard error
[17] = 500 mg.Kg i.p., 3 hours, ± standard error
[18] = 1 g/Kg i.p. one hour before NMDA 154 mg/Kg i.p., number/total

SMILES: O=C(O)C(=O)Cc1c[nH]c2ccccc12 [3-indolepyruvic acid]
- Animals with convulsions, % ([1]; 200 mg/Kg intravenously): 33%
- Animals with convulsions ([1]; 200 mg/Kg intravenously): 4/12
- protective action against tonic convulsions induced by sound stimulations (in words) [1]: good protective action
- kynurenic acid content, Blood [2, 15]: 62 ± 3 picomoles/ml of blood
- kynurenic acid content, Brain [2, 15]: 24 ± 1 picomoles/g of tissue
- kynurenic acid content, Liver [2, 15]: 240 ± 20 picomoles/g of tissue
- kynurenic acid content, Blood [2, 16]: 164 ± 10 picomoles/ml of blood
- kynurenic acid content, Brain [2, 16]: 32 ± 3 picomoles/g of tissue
- kynurenic acid content, Blood [2, 17]: 442 ± 20 picomoles/ml of blood
- kynurenic acid content, Brain [2, 17]: 110 ± 10 picomoles/g of tissue
- kynurenic acid in brain, times higher than the controls ([2]; 500 mg/Kg): six
- increase in the levels of kynurenic acid in the tissues (in words) [2]: dose-dependent
- stability (in words) [3]: highly instable
- Deaths [4, 18]: 3/9
- Tonic convulsions [4, 18]: 5/9
- protection against convulsions and death induced by NMDA (in words) ([4]; mouse, in vivo): able to protect mice against both convulsions and death induced by NMDA
- kynurenic acid obtained ([5]; after 2 hours): 0,5 micrograms
- kynurenic acid obtained ([5]; after 4 hours): 0,7 micrograms
- kynurenic acid content, Blood ([6]; 100 mg/Kg per os): 87 ± 8 picomoles/ml of blood
- kynurenic acid content, Brain ([6]; 100 mg/Kg per os): 28 ± 2 picomoles/g of tissue
- kynurenic acid content, Liver ([6]; 100 mg/Kg per os): 275 ± 25 picomoles/g of tissue
- kynurenic acid content, Liver ([6]; 250 mg.Kg i.p.): 547 ± 35 picomoles/g of tissue
- kynurenic acid content, Blood ([6]; 250 mg/Kg per os): 120 ± 12 picomoles/ml of blood
- kynurenic acid content, Brain ([6]; 250 mg/Kg per os): 38 ± 3 picomoles/g of tissue
- kynurenic acid content, Liver ([6]; 250 mg/Kg per os): 485 ± 40 picomoles/g of tissue
- kynurenic acid content, Liver ([6]; 500 mg.Kg i.p.): 2860 ± 300 picomoles/g of tissue
- transformation into kynurenic acid in brain homogenate (in words) [7]: able to transform into kynurenic acid in the brain
- Amount of kynurenic acid formed ([7]; 1.6 mg, 30'): 165 ng
- Amount of kynurenic acid formed ([7]; 1.6 mg, 60'): 280 ng
- Amount of kynurenic acid formed ([7]; 1.6 mg, 120'): 380 ng
- precursor of cerebral kynurenic acid (in words) [8]: selective precursor of cerebral kynurenic acid
- KYN/TRP × 10^3 [8]: 0.40
- kynurenic acid levels over time in the organs (in words) [9]: high increase of kynurenic acid in all the organs under test (maximum in kidney). The levels remain high even after 4 hours from administration
- kynurenic acid level, Brain ([9]; 1 hour): 39 ± 4 picomoles/g
- kynurenic acid level, Heart ([9]; 1 hour): 181 ± 18 picomoles/g
- kynurenic acid level, Kidney ([9]; 1 hour): 2593 ± 250 picomoles/g
- kynurenic acid level, Liver ([9]; 1 hour): 827 ± 50 picomoles/g
- kynurenic acid level, Brain ([9]; 2 hours): 32 ± 3 picomoles/g
- kynurenic acid level, Heart ([9]; 2 hours): 177 ± 20 picomoles/g
- kynurenic acid level, Kidney ([9]; 2 hours): 2395 ± 200 picomoles/g
- kynurenic acid level, Liver ([9]; 2 hours): 464 ± 40 picomoles/g
- kynurenic acid level, Brain ([9]; 3 hours): 38 ± 4 picomoles/g
- kynurenic acid level, Heart ([9]; 3 hours): 104 ± 12 picomoles/g
- kynurenic acid level, Kidney ([9]; 3 hours): 1480 ± 150 picomoles/g
- kynurenic acid level, Liver ([9]; 3 hours): 235 ± 5 picomoles/g
- kynurenic acid level, Brain ([9]; 4 hours): 28 ± 3 picomoles/g
- kynurenic acid level, Heart ([9]; 4 hours): 100 ± 11 picomoles/g
- kynurenic acid level, Kidney ([9]; 4 hours): 1200 ± 150 picomoles/g
- kynurenic acid level, Liver ([9]; 4 hours): 122 ± 10 picomoles/g
- Amount of kynurenic acid formed ([10]; final 0.8 mg, 30'): 160 ng
- Amount of kynurenic acid formed ([10]; final 0.8 mg, 60'): 190 ng
- Amount of kynurenic acid formed ([10]; final 0.8 mg, 120'): 208 ng
- Amount of kynurenic acid formed ([10]; final 1.6 mg, 30'): 232 ng
- Amount of kynurenic acid formed ([10]; final 1.6 mg, 60'): 280 ng
- Amount of kynurenic acid formed ([10]; final 1.6 mg, 120'): 315 ng
- Amount of kynurenic acid formed ([10]; final 4 mg, 30'): 185 ng
- Amount of kynurenic acid formed ([10]; final 4 mg, 60'): 221 ng
- Amount of kynurenic acid formed ([10]; final 4 mg, 120'): 270 ng

- Amount of kynurenic acid formed ([7]; amount not given, 30'): 48 ng
- Amount of kynurenic acid formed ([7]; amount not given, 60'): 65 ng
- Amount of kynurenic acid formed ([7]; amount not given, 120'): 83 ng
SMILES: COC(=O)C(=O)Cc1c[nH]c2ccccc12 [IPA-Methylester, 3-indolepyruvic acid methyl ester]

- Amount of kynurenic acid formed ([7]; amount not given, 30'): 75 ng
- Amount of kynurenic acid formed ([7]; amount not given, 60'): 82 ng
- Amount of kynurenic acid formed ([7]; amount not given, 120'): 92 ng
SMILES: COC(=O)C(Cc1ccccc1)NC(=O)C(=O)Cc1c[nH]c2ccccc12 (stereo not shown) [IPE-PHE-Ome, 3indolepyruvic acid phenylalanine methylester]

- Amount of kynurenic acid formed ([7]; amount not given, 30'): 44 ng
- Amount of kynurenic acid formed ([7]; amount not given, 60'): 48 ng
- Amount of kynurenic acid formed ([7]; amount not given, 120'): 79 ng
SMILES: COC(=O)C(Cc1ccc(O)cc1)NC(=O)C(=O)Cc1c[nH]c2ccccc12 (stereo not shown) [IPE-TYR-Ome, 3indolepyruvic acid tyrosine methylester]

SMILES: O=C(O)C(=O)Cc1c[nH]c2ccccc12 [Mg^++ IPA salt, Mg salt of 3-indolepyruvic acid]
- solubility in water (in words) [11]: water soluble
- Animals with convulsions, % ([1]; intravenously, dose not given): 29%
- Animals with convulsions ([1]; intravenously, dose not given): 4/14

SMILES: CN[C@H](CC(=O)O)C(=O)O [NMDA, N-methyl-D-aspartic acid]
- neurotoxic effect (in words) ([12]; activation of receptors of the excitatory aminoacids): powerful neurotoxic effect

- increase in the levels of kynurenic acid in the tissues (in words) [2]: does not produce such an effect
- transformation into kynurenic acid in brain homogenate (in words) [7]: never transformed into kynurenic acid
- Amount of kynurenic acid formed ([7]; 1.6 mg, 30'): 0 ng
- Amount of kynurenic acid formed ([7]; 1.6 mg, 60'): 0 ng
- Amount of kynurenic acid formed ([7]; 1.6 mg, 120'): 0 ng
- KYN/TRP × 10^3 [8]: 0.16
- Amount of kynurenic acid formed ([10]; final 1.6 mg, 30'): 55 ng
- Amount of kynurenic acid formed ([10]; final 1.6 mg, 60'): 82 ng
- Amount of kynurenic acid formed ([10]; final 1.6 mg, 120'): 111 ng
SMILES: N[C@@H](Cc1c[nH]c2ccccc12)C(=O)O [Tryptophan, tryptophan, reference compound]
- Animals with convulsions, % ([1]; 200 mg/Kg intravenously): 80%
- Animals with convulsions ([1]; 200 mg/Kg intravenously): 8/10
- protective action against tonic convulsions induced by sound stimulations (in words) [1]: no effective action

SMILES: O=C(O)c1cc(=O)c2ccccc2[nH]1 [kynurenic acid]
- protection against the toxicity due to NMDA (in words) ([12]; well known effect of kynurenic acid): protects against the toxicity due to NMDA
- protection against audiogenic convulsions (in words) [13]: protective against convulsions
- inhibition of the excitatory effects of quinolinic acid, N-methyl-D-aspartate and other aminoacids (in words) [14]: powerful inhibitor

SMILES: Nc1ccccc1C(=O)CC(N)C(=O)O (stereo not shown) [kynurenine]
- agonism of excitatory aminoacids (in words) [14]: powerful agonists of excitatory aminoacids

SMILES: O=C(O)c1cccnc1C(=O)O [quinolinic acid]
- agonism of excitatory aminoacids (in words) [14]: powerful agonists of excitatory aminoacids
